Tests used:
[1] = system: influenza A virus strain fowl plague virus A/Fpv/Bratislava/79 (H7N7); type: cell-based
[2] = system: influenza A virus strain fowl plague virus A/Fpv/Bratislava/79; type: cell-based

Row | Structure (SMILES) | virus multiplication vs cells not treated with U0126 [1] | virus multiplication vs cells not treated with SB202190 [2]
1 | N#CC(=C(N)Sc1ccccc1N)C(C#N)=C(N)Sc1ccccc1N [U0126, 1,4-diamino-2,3-dicyano-1,4-bis(2-aminophenylthio)butadiene] | significantly inhibited | 
2 | Oc1ccc(-c2nc(-c3ccc(F)cc3)c(-c3ccncc3)[nH]2)cc1 [SB202190, 4-(4-fluorophenyl)-2-(4-hydroxyphenyl)-5-(4-pyridyl) 1H-imidazole] |  | significantly inhibited

— patent US20100239563A1 (priority 2001, published 2010)
